Assay results taken from US20250215030A1, “STAT MODULATORS AND USES THEREOF” (Recludix Pharma, Inc., priority 2022, published 2025).

Tests used:
[1] = biological target: T1, Recombinant STAT3 protein (STAT3(G127-I722)) (Homo sapiens, UniProt P40763); test: STAT3 Fluorescence Polarization (FP) Assay; format: binding; conditions: STAT3(G127-I722) 25 nM, probe 5-FAM-GpYLPQTV-NH2 2 nM, 45-minute incubation
T1 construct: STAT3(G127-I722)
How it was run: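 Serially diluted compounds (1% DMSO) were mixed with 2 nM fluorescent phosphotyrosine peptide and 25 nM STAT3 construct G127-I722, pH 7.4, incubated 45 min at room temperature. IC50 values from fitted polarization curves are reported as categories A (≤100 nM), B, C, D (>10 μM).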

[2] = biological target: T2, Recombinant STAT6 protein (STAT6(W123-T658)) (Homo sapiens, UniProt P42226); test: STAT6 Fluorescence Polarization (FP) Assay; format: binding; conditions: STAT6(W123-T658) 250 nM, probe 5-FAM-ApYKPFQDLI-NH2 2 nM, 45-minute incubation
T2 construct: STAT6(W123-T658)
T2 sequence (P42226 123-658): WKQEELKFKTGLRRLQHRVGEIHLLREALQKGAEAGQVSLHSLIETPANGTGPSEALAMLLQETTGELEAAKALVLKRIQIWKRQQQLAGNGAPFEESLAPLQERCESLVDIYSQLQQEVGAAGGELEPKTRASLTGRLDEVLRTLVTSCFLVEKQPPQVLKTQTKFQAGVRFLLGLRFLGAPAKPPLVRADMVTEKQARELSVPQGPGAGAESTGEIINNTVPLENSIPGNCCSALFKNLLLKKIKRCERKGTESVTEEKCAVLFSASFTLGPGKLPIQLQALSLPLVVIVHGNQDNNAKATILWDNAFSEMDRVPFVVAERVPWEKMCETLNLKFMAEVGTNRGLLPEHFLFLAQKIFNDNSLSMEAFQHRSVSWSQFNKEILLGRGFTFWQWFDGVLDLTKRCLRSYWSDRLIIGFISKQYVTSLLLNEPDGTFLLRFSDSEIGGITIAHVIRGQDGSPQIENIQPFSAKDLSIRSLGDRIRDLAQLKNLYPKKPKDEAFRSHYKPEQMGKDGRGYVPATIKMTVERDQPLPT
How it was run: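 Competitive displacement of a fluorescent phosphotyrosine peptide (2 nM) from recombinant STAT6 W123-T658 (250 nM), 45 min at room temperature in 10 mM HEPES pH 7.4, 50 mM NaCl, 2 mM DTT. mP fitted against log compound for IC50, grouped A (≤300 nM) to D (>30 μM).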

T1 sequence (P40763 127-722, species assumed): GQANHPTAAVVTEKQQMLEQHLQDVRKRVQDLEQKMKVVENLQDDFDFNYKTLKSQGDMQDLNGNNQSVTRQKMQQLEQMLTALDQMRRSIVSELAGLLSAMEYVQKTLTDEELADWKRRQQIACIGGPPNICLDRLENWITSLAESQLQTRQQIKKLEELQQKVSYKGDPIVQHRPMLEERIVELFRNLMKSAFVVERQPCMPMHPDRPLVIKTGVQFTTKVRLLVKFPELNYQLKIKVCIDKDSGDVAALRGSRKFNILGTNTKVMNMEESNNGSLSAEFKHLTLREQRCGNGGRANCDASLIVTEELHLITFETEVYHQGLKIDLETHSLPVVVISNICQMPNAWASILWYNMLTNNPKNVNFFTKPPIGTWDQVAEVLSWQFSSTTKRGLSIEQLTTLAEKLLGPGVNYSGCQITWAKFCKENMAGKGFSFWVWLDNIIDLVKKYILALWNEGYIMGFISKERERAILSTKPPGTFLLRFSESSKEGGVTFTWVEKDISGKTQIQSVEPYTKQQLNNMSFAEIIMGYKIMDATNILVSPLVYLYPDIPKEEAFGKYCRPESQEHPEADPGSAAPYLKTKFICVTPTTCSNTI

| SMILES | IC50 [1] | IC50 [2] |
| --- | --- | --- |
| O=C(N[C@H]1C[C@@H]2C[C@@H]2C[C@H]2CC[C@@H](C(=O)N3CC(C4CCOCC4)C3)N2C1=O)c1cc2cc(C(F)(F)P(=O)(O)O)ccc2s1 [Compound 96, (difluoro(2-(((3S,6S,7aS,8aR,9aR)-5-ox0-3-(3-(tetrahydro-2H-pyran-4-yl)azetidine-1-carbonyl)decahydro-1H-cyclopropa[d]pyrrolo[1,2-a]azocin-6-yl)carbamoyl)benzo[b]thiophen-5-yl)methyl)phosphonic acid] | 100 to 1000 nM | 3000 to 30000 nM |
| O=C(N[C@H]1C[C@@H]2C[C@@H]2C[C@H]2CC[C@@H](C(=O)N3CC(c4ccccn4)C3)N2C1=O)c1cc2cc(C(F)(F)P(=O)(O)O)ccc2s1 [Compound 97, (difluoro(2-(((3S,6S,7aS,8aR,9aR)-5-ox0-3-(3-(pyridin-2-yl)azetidine-1-carbonyl)decahydro-1H-cyclopropa[d]pyrrolo[1,2-a]azocin-6-yl)carbamoyl)benzo[b]thiophen-5-yl)methyl)phosphonic acid] | < 100 nM | 3000 to 30000 nM |
| O=C(N[C@H]1C[C@@H]2C[C@@H]2C[C@H]2CC[C@@H](C(=O)N3CC(c4cccnc4)C3)N2C1=O)c1cc2cc(C(F)(F)P(=O)(O)O)ccc2s1 [Compound 100, (difluoro(2-(((3S,6S,7aS,8aR,9aR)-5-ox0-3-(3-(pyridin-3-yl)azetidine-1-carbonyl)decahydro-1H-cyclopropa[d]pyrrolo[1,2-a]azocin-6-yl)carbamoyl)benzo[b]thiophen-5-yl)methyl)phosphonic acid] | < 100 nM | 3000 to 30000 nM |
| CC(C(N)=O)c1cc(-c2ccccc2)ccc1NC(=O)[C@@H]1CC[C@@H]2C[C@H]3C[C@H]3C[C@H](NC(=O)c3cc4cc(C(F)(F)P(=O)(O)O)ccc4s3)C(=O)N21 (some centres unmarked) [Compound 101] | 100 to 1000 nM | 300 to 3000 nM |
| COC1CN(C(=O)C2CN(C(=O)[C@@H]3CC[C@@H]4C[C@H]5C[C@H]5C[C@H](NC(=O)c5cc6cc(C(F)(F)P(=O)(O)O)ccc6s5)C(=O)N43)C2)C1 [Compound 102, (difluoro(2-(((3S,6S,7aS,8aR,9aR)-3-(3-(3-methoxyazetidine-1-carbonyl)azetidine-1-carbonyl)-5-oxodecahydro-1H-cyclopropa[d]pyrrolo[1,2-a]azocin-6-yl)carbamoyl)benzo[b]thiophen-5-yl)methyl)phosphonic acid] | < 100 nM | 3000 to 30000 nM |
| O=C(N[C@H]1C[C@@H]2C[C@@H]2C[C@H]2CC[C@@H](C(=O)N3CC(c4nn[nH]n4)C3)N2C1=O)c1cc2cc(C(F)(F)P(=O)(O)O)ccc2s1 [Compound 103, ((2-(((3S,6S,7aS,8aR,9aR)-3-(3-(2H-tetrazol-5-yl)azetidine-1-carbonyl)-5-oxodecahydro-1H-cyclopropa[d]pyrrolo[1,2-a]azocin-6-yl)carbamoyl)benzo[b]thiophen-5-yl)difluoromethyl)phosphonic acid] | 100 to 1000 nM | 300 to 3000 nM |
| O=C(N[C@H]1C[C@@H]2C[C@@H]2C[C@H]2CC[C@@H](C(=O)N3CCN(C(=O)c4cn[nH]c4)CC3)N2C1=O)c1cc2cc(C(F)(F)P(=O)(O)O)ccc2s1 [Compound 104, ((2-(((3S,6S,7aS,8aR,9aR)-3-(4-(1H-pyrazole-4-carbonyl)piperazine-1-carbonyl)-5-oxodecahydro-1H-cyclopropa[d]pyrrolo[1,2-a]azocin-6-yl)carbamoyl)benzo[b]thiophen-5-yl)difluoromethyl)phosphonic acid] | < 100 nM | 300 to 3000 nM |
| O=C(N[C@H]1C[C@@H]2C[C@@H]2C[C@H]2CC[C@@H](C(=O)N3CCN(C(=O)c4cc[nH]n4)CC3)N2C1=O)c1cc2cc(C(F)(F)P(=O)(O)O)ccc2s1 [Compound 105, ((2-(((3S,6S,7aS,8aR,9aR)-3-(4-(1H-pyrazole-3-carbonyl)piperazine-1-carbonyl)-5-oxodecahydro-1H-cyclopropa[d]pyrrolo[1,2-a]azocin-6-yl)carbamoyl)benzo[b]thiophen-5-yl)difluoromethyl)phosphonic acid] | 100 to 1000 nM | 300 to 3000 nM |
| O=C(N[C@H]1C[C@H]2C[C@H]2C[C@H]2CC[C@@H](C(=O)N3CC(n4ccnc4)C3)N2C1=O)c1cc2cc(C(F)(F)P(=O)(O)O)ccc2s1 [Compound 107, ((2-(((3S,6S,7aR,8aS,9aR)-3-(3-(1H-imidazol-1-yl)azetidine-1-carbonyl)-5-oxodecahydro-1H-cyclopropa[d]pyrrolo[1,2-a]azocin-6-yl)carbamoyl)benzo[b]thiophen-5-yl)difluoromethyl)phosphonic acid] | < 100 nM | 3000 to 30000 nM |

Continued, values first:

| IC50 [1] | IC50 [2] | SMILES |
| --- | --- | --- |
| < 100 nM | 3000 to 30000 nM | O=C(N[C@H]1C[C@@H]2C[C@@H]2C[C@H]2CC[C@@H](C(=O)N3CC(N4CCS(=O)(=O)CC4)C3)N2C1=O)c1cc2cc(C(F)(F)P(=O)(O)O)ccc2s1 [Compound 108, ((2-(((3S,6S,7aS,8aR,9aR)-3-(3-(1,1-dioxidothiomorpholino)azetidine-1-carbonyl)-5-oxodecahydro-1H-cyclopropa[d]pyrrolo[1,2-a]azocin-6-yl)carbamoyl)benzo[b]thiophen-5-yl)difluoromethyl)phosphonic acid] |
| < 100 nM | 3000 to 30000 nM | O=C(N[C@H]1C[C@@H]2C[C@@H]2C[C@H]2CC[C@@H](C(=O)N3CC(C(=O)N4CC[C@@H](O)C4)C3)N2C1=O)c1cc2cc(C(F)(F)P(=O)(O)O)ccc2s1 [Compound 109, (difluoro(2-(((3S,6S,7aS,8aR,9aR)-3-(3-((R)-3-hydroxypyrrolidine-1-carbonyl)azetidine-1-carbonyl)-5-oxodecahydro-1H-cyclopropa[d]pyrrolo[1,2-a]azocin-6-yl)carbamoyl)benzo[b]thiophen-5-yl)methyl)phosphonic acid] |
| 100 to 1000 nM | 3000 to 30000 nM | CC1(O)CCN(C2CN(C(=O)[C@@H]3CC[C@@H]4C[C@H]5C[C@H]5C[C@H](NC(=O)c5cc6cc(C(F)(F)P(=O)(O)O)ccc6s5)C(=O)N43)C2)CC1 [Compound 110, (difluoro(2-(((3S,6S,7aS,8aR,9aR)-3-(3-(4-hydroxy-4-methylpiperidin-1-yl)azetidine-1-carbonyl)-5-oxodecahydro-1H-cyclopropa[d]pyrrolo[1,2-a]azocin-6-yl)carbamoyl)benzo[b]thiophen-5-yl)methyl)phosphonic acid] |
| < 100 nM | 300 to 3000 nM | O=C(N[C@H]1C[C@@H]2C[C@@H]2C[C@H]2CC[C@@H](C(=O)N3CC(c4cc[nH]n4)C3)N2C1=O)c1cc2cc(C(F)(F)P(=O)(O)O)ccc2s1 [Compound 111, ((2-(((3S,6S,7aS,8aR,9aR)-3-(3-(1H-pyrazol-3-yl)azetidine-1-carbonyl)-5-oxodecahydro-1H-cyclopropa[d]pyrrolo[1,2-a]azocin-6-yl)carbamoyl)benzo[b]thiophen-5-yl)difluoromethyl)phosphonic acid] |
| < 100 nM | 300 to 3000 nM | O=C(N[C@H]1C[C@@H]2C[C@@H]2C[C@H]2CC[C@@H](C(=O)N[C@@H]3CCN(c4cccnc4)C3)N2C1=O)c1cc2cc(C(F)(F)P(=O)(O)O)ccc2s1 [Compound 112, (difluoro(2-(((3S,6S,7aS,8aR,9aR)-5-oxo-3-(((R)-1-(pyridin-3-yl)pyrrolidin-3-yl)carbamoyl)decahydro-1H-cyclopropa[d]pyrrolo[1,2-a]azocin-6-yl)carbamoyl)benzo[b]thiophen-5-yl)methyl)phosphonic acid] |
| 100 to 1000 nM | 3000 to 30000 nM | O=C(N[C@H]1C[C@@H]2C[C@@H]2C[C@H]2CC[C@@H](C(=O)N3CCN(c4ccccn4)CC3)N2C1=O)c1cc2cc(C(F)(F)P(=O)(O)O)ccc2s1 [Compound 113, (difluoro(2-(((3S,6S,7aS,8aR,9aR)-5-ox0-3-(4-(pyridin-2-yl)piperazine-1-carbonyl)decahydro-1H-cyclopropa[d]pyrrolo[1,2-a]azocin-6-yl)carbamoyl)benzo[b]thiophen-5-yl)methyl)phosphonic acid] |
| < 100 nM | 3000 to 30000 nM | CO[C@@H]1CCN(C(=O)C2CN(C(=O)[C@@H]3CC[C@@H]4C[C@H]5C[C@H]5C[C@H](NC(=O)c5cc6cc(C(F)(F)P(=O)(O)O)ccc6s5)C(=O)N43)C2)C1 [Compound 114, (difluoro(2-(((3S,6S,7aS,8aR,9aR)-3-(3-((R)-3-methoxypyrrolidine-1-carbonyl)azetidine-1-carbonyl)-5-oxodecahydro-1H-cyclopropa[d]pyrrolo[1,2-a]azocin-6-yl)carbamoyl)benzo[b]thiophen-5-yl)methyl)phosphonic acid] |
